Test: Safety and tolerability: adverse events, dose-limiting toxicities, MTD, RP2D (Phase 1A/1B)
Format: in vivo
Method: This was an open-label, Phase 1, dose-escalation/dose-expansion study, conducted across six study centres in Australia. The dose-escalation phase evaluated twice-daily (BID) and once-daily (QD) dosing, and the dose-expansion phase evaluated the BID RP2D from the dose-escalation phase and food effects (Fig. 1). The food-effects cohort comprised two sequences: fast followed by fed (sequence 1) and fed followed by fast (sequence 2). […] The decision to proceed to the next dose cohort was determined by the Safety Monitoring Committee and followed a modified 3 + 3 escalation scheme. […] When ≥2 DLTs occurred in the first 23 days of a dose level, the next lower dose level was declared the MTD. Safety was monitored and DLTs were assessed in all dose cohorts. […] The food-effects cohort investigated the effects of food on the PK of pamiparib in patients with advanced solid tumours.
The QD dosing regimen was added as an amendment to the protocol with the purpose of exploring the feasibility of a more convenient regimen.
Safety and tolerability were assessed throughout the study by monitoring adverse events (AEs), serious AEs, clinical laboratory measurements and physical examinations. Adverse events were categorised according to their severity (National Cancer Institute Common Terminology Criteria for Adverse Events v4.03) and relationship to the study treatment.

C[C@]12CCCN1CC1=NNC(=O)c3cc(F)cc4[nH]c2c1c34 [pamiparib]
Abdominal pain, AE of any grade (2.5 mg BID (n = 4)): 1 (25.0) n (%) | Anaemia, AE of any grade (2.5 mg BID (n = 4)): 1 (25.0) n (%) | Ascites, AE of any grade (2.5 mg BID (n = 4)): 1 (25.0) n (%) | Back pain, AE of any grade (2.5 mg BID (n = 4)): 0 (0.0) n (%) | Constipation, AE of any grade (2.5 mg BID (n = 4)): 1 (25.0) n (%) | Cough, AE of any grade (2.5 mg BID (n = 4)): 0 (0.0) n (%) | Decreased appetite, AE of any grade (2.5 mg BID (n = 4)): 0 (0.0) n (%) | Diarrhoea, AE of any grade (2.5 mg BID (n = 4)): 0 (0.0) n (%) | Dose-limiting toxicity (2.5 mg BID (n = 4)): 0 (0.0) n (%) | Dyspnoea, AE of any grade (2.5 mg BID (n = 4)): 0 (0.0) n (%) | Fatigue, AE of any grade (2.5 mg BID (n = 4)): 1 (25.0) n (%) | Headache, AE of any grade (2.5 mg BID (n = 4)): 0 (0.0) n (%) | Hypoalbuminemia, AE of any grade (2.5 mg BID (n = 4)): 1 (25.0) n (%) | Hypomagnesemia, AE of any grade (2.5 mg BID (n = 4)): 0 (0.0) n (%) | Hypophosphatemia, AE of any grade (2.5 mg BID (n = 4)): 0 (0.0) n (%) | Increased AST, AE of any grade (2.5 mg BID (n = 4)): 0 (0.0) n (%) | Muscle spasms, AE of any grade (2.5 mg BID (n = 4)): 1 (25.0) n (%) | Nausea, AE of any grade (2.5 mg BID (n = 4)): 3 (75.0) n (%) | Neutropenia, AE of any grade (2.5 mg BID (n = 4)): 0 (0.0) n (%) | Non-cardiac chest pain, AE of any grade (2.5 mg BID (n = 4)): 0 (0.0) n (%) | Pain in extremity, AE of any grade (2.5 mg BID (n = 4)): 0 (0.0) n (%) | Peripheral sensory neuropathy, AE of any grade (2.5 mg BID (n = 4)): 0 (0.0) n (%) | Pleural effusion, AE of any grade (2.5 mg BID (n = 4)): 0 (0.0) n (%) | Pyrexia, AE of any grade (2.5 mg BID (n = 4)): 1 (25.0) n (%) | Treatment-emergent AE (2.5 mg BID (n = 4)): 4 (100.0) n (%) | Treatment-emergent AE: Grade 3 or higher (2.5 mg BID (n = 4)): 3 (75.0) n (%) | Treatment-emergent AE: Leading to death (2.5 mg BID (n = 4)): 0 (0.0) n (%) | Treatment-emergent AE: Leading to dose interruption (2.5 mg BID (n = 4)): 1 (25.0) n (%) | Treatment-emergent AE: Leading to dose modification (2.5 mg BID (n = 4)): 1 (25.0) n (%) | Treatment-emergent AE: Leading to dose reduction (2.5 mg BID (n = 4)): 0 (0.0) n (%) | Treatment-emergent AE: Leading to treatment discontinuation (2.5 mg BID (n = 4)): 0 (0.0) n (%) | Treatment-emergent AE: Serious (2.5 mg BID (n = 4)): 3 (75.0) n (%) | Treatment-related AE (2.5 mg BID (n = 4)): 3 (75.0) n (%) | Treatment-related AE: Grade 3 or higher (2.5 mg BID (n = 4)): 0 (0.0) n (%) | Treatment-related AE: Leading to death (2.5 mg BID (n = 4)): 0 (0.0) n (%) | Treatment-related AE: Leading to dose interruption (2.5 mg BID (n = 4)): 0 (0.0) n (%) | Treatment-related AE: Leading to dose modification (2.5 mg BID (n = 4)): 0 (0.0) n (%) | Treatment-related AE: Leading to dose reduction (2.5 mg BID (n = 4)): 0 (0.0) n (%) | Treatment-related AE: Leading to treatment discontinuation (2.5 mg BID (n = 4)): 0 (0.0) n (%) | Treatment-related AE: Serious (2.5 mg BID (n = 4)): 0 (0.0) n (%) | Upper respiratory tract infection, AE of any grade (2.5 mg BID (n = 4)): 1 (25.0) n (%) | Urinary tract infection, AE of any grade (2.5 mg BID (n = 4)): 0 (0.0) n (%) | Vomiting, AE of any grade (2.5 mg BID (n = 4)): 1 (25.0) n (%) | Abdominal pain, AE of any grade (5.0 mg BID (n = 3)): 0 (0.0) n (%) | Anaemia, AE of any grade (5.0 mg BID (n = 3)): 0 (0.0) n (%) | Ascites, AE of any grade (5.0 mg BID (n = 3)): 0 (0.0) n (%) | Back pain, AE of any grade (5.0 mg BID (n = 3)): 0 (0.0) n (%) | Constipation, AE of any grade (5.0 mg BID (n = 3)): 0 (0.0) n (%) | Cough, AE of any grade (5.0 mg BID (n = 3)): 0 (0.0) n (%) | Decreased appetite, AE of any grade (5.0 mg BID (n = 3)): 0 (0.0) n (%) | Diarrhoea, AE of any grade (5.0 mg BID (n = 3)): 1 (33.3) n (%) | Dose-limiting toxicity (5.0 mg BID (n = 3)): 0 (0.0) n (%) | Dyspnoea, AE of any grade (5.0 mg BID (n = 3)): 0 (0.0) n (%) | Fatigue, AE of any grade (5.0 mg BID (n = 3)): 1 (33.3) n (%) | Headache, AE of any grade (5.0 mg BID (n = 3)): 1 (33.3) n (%) | Hypoalbuminemia, AE of any grade (5.0 mg BID (n = 3)): 0 (0.0) n (%) | Hypomagnesemia, AE of any grade (5.0 mg BID (n = 3)): 0 (0.0) n (%) | Hypophosphatemia, AE of any grade (5.0 mg BID (n = 3)): 0 (0.0) n (%) | Increased AST, AE of any grade (5.0 mg BID (n = 3)): 0 (0.0) n (%) | Muscle spasms, AE of any grade (5.0 mg BID (n = 3)): 1 (33.3) n (%) | Nausea, AE of any grade (5.0 mg BID (n = 3)): 0 (0.0) n (%) | Neutropenia, AE of any grade (5.0 mg BID (n = 3)): 0 (0.0) n (%) | Non-cardiac chest pain, AE of any grade (5.0 mg BID (n = 3)): 0 (0.0) n (%) | Pain in extremity, AE of any grade (5.0 mg BID (n = 3)): 0 (0.0) n (%) | Peripheral sensory neuropathy, AE of any grade (5.0 mg BID (n = 3)): 1 (33.3) n (%)

Reference: paper PMC8854719, “Phase 1A/1B dose-escalation and -expansion study to evaluate the safety, pharmacokinetics, food effects and antitumor activity of pamiparib in advanced solid tumours” (British Journal of Cancer, 2021)
